Experimental data from article PMC6571673, “Cytostatic and Cytotoxic Natural Products against Cancer Cell Models” (Molecules, 2019).

Experiments:
[1] = test system: KOPN-8; assay: Annexin V/PI apoptosis flow cytometry assay; type: cell-based, human; details: KOPN-8, 24 h; 8 5 µM, 9 10 µM, 10 5 µM, 12 10 µM, 13 10 µM
Protocol: (§1) The samples were probed with AnnexinV-FITC (Roche/Boehringer Mannheim, Indianapolis, IN, USA) according to the manufacturer’s instructions. KOPN-8 or SUB-P15 cells were plated (1.00 × 10^6 cells/plate) and incubated for 12 h and incubated at 37 °C. Then, cells were treated with compounds or controls for 24 h. Cells were stained with AnnexinV-FITC, PI and the staining profiles were determined with FACScan and Cell-Quest software. For cellular DNA content, the same cell treatment as above was performed. Then, cells were fixed in cold 75% ethanol, treated with RNase and then stained with PI solution (50 µg/mL). Cell cycle distribution was analyzed with the FACSCalibur analyzer (BD Biosciences, Franklin Lakes, NJ, USA) and Cell-Quest software. The percentage of DNA content at different phases of the cell cycle was analyzed with ModFit-software (version 5.0, Verity Software House, Topsham, ME, USA).

[2] = test system: SUP-B15; assay: Annexin V/PI apoptosis flow cytometry assay; type: cell-based, human; details: SUP-B15, 24 h; 8 5 µM, 9 10 µM, 10 5 µM, 12 10 µM, 13 10 µM
Protocol: as §1

[3] = test system: de novo protein synthesis in MDA-MB-231; assay: EZClick in-cell-click de novo protein synthesis assay; type: cell-based, human; details: MDA-MB-231, 2 h exposure time
From the text: Protein synthesis is essential in cell growth, proliferation, signaling, differentiation, and death. […] The assay includes a robust chemical method based on an alkyne containing o-propargyl-puromycin probe, which stops translation by forming covalent conjugates with nascent polypeptide chains. Truncated polypeptides are rapidly turned over by the proteasome and can be detected based on the subsequent click reaction with a fluorescent azide. To test whether these compounds (4–14) induced de novo protein synthesis inhibition, compounds were tested for a 2 h exposure time, under the same conditions as the known protein synthesis inhibitor cycloheximide (CHX) in MDA-MB-231 cell model following an in-cell-click de novo protein synthesis assay.
Biovision’s EZClick™ protein synthesis monitoring assay kit (EZClick™ Global Protein Synthesis Assay Kit, Catalog # K715-100, Milpitas, CA, USA) was used according to manufacturer’s protocol. The assay was conducted in 8-well chambered coverslips (ibidi GmbH µ-slide # 80826, Martinsried, Germany). Cells were plated at 2 × 10^4 per well and incubated at 37 °C for 12 h. Then, the cells were treated with compounds for 1.5 h and processed and stained according to protocol (representative images shown in Figure 4). Protein synthesis activity is shown in red, DNA staining is shown in green. Cycloheximide (CHX) was used as a positive control and DMSO as the negative control. Images shown were taken with a Marianas CSU-X spinning disk confocal imaging system (3i, Denver, CO, USA) configured with a Zeiss Axio Observer microscope (Carl Zeiss Inc., Thornwood, NY, USA) with diode lasers, at 63× magnification and resolution of 512 × 512 pixels (3i). For each field of view, an image stack consisting of 20 optical sections were taken at 63× magnification. The total intensity of red and green staining was quantified for the entire image stack. Six fields of view were analyzed per condition. Images shown represent a single optical section for each field of view. For each stack, the red intensity (protein synthesis) was adjusted to the green intensity (DNA content) in each image. The numbers from six images were used to calculate the average and standard deviation for each condition. Numbers were normalized to the negative control value arbitrarily set to one. The Slide viewer 6 software package was used for rendering and analysis of the images.

[4] = test system: SUM149; assay: Propidium iodide (PI) assay, 48 h; details: SUM149, 48 h, 3 µM
Protocol: The first step was to evaluate if the compounds display cytotoxicity against the adherent cells. Propidium iodide (PI) assay was performed for the drug resistant solid tumor cellular models (triple negative breast cancer models: SUM149 and MDA-MB-231) for 48 h (Figure 5) [30, 31].

## COC1=C[C@]23CCCN2CCc2cc4c(cc2[C@@H]3[C@@H]1O)OCO4 [Compound 9, cephalotaxine]
[1]
  live cells (Annexin-, PI-): small decrease in live cells
[2]
  live cells (Annexin-, PI-): small decrease in live cells
[3]
  concentration at which de novo protein synthesis is inhibited: 10 µM
[4]
  reduction of cell viability: 50%
